The numbers were not newly measured in patent US5017613A, “Valproic acid preparations” (Sanofi, S. A., priority 1983, dated 1991), which cites them from elsewhere.

For this data set the following is noted: after oral administration.

With `CCCC(CCC)C(=O)O` [valproic acid, Dipropylacetic or valproic acid], the “bioavailability in the blood of valproic acid” value is recorded as around 100%.
